# From the supplement of paper PMC11208160
# Test: recombinant barcode read abundance after kanamycin selection (control-corrected) (log10(CPM+1)); higher = more efficient recombination; sequences stand for … in AGTGCAGAGAAAATCGGCCAGTTTTCTCTGCCTGCAGTCCGCATGCCGT…AGATTTATGCAGCGGACTGCCTTTCTCCCAAAGTGATAAACCGGACAGTATCATGGACCGGTTTTCCCGGTAATCCGTATTTGCAAGGTTGGTTTCACT; site = the 11-nt target
# In short: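 Recombination efficiency comes from barcode counts at recombinant junctions, converted to counts per million, averaged and corrected against the control. Values appear as log10(CPM+1). They were obtained from a pooled E. coli screen in which each oligo paired a target with an IS621 bridge RNA target-binding loop, and cells were plated in duplicate on chloramphenicol/ampicillin LB agar or on chloramphenicol/ampicillin/kanamycin with 0.1 mM IPTG.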
# 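Note: IS621 recombinase and bridge RNA in Escherichia coli cells.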
row,Sequence,recombinant barcode read abundance (log10)
1,TCCCATTCTTGGGTTCTAACCTGTTGCCT (site TCCCATCCTAG),0.03
2,TCCCATTCTTGGGTTCTAACCTGTTGCCT (site TCCCATGCTAG),0.0488
3,TCCCATTCTTGGGTTCTAACCTGTTGCCT (site TCCCATTCTAG),0.115
4,TCCCGAGCTTGGGTTCTAACCTGTTGCCT (site TCCCGAACTAG),0.435
5,TCCCGAGCTTGGGTTCTAACCTGTTGCCT (site TCCCGACCTAG),0
6,TCCCGAGCTTGGGTTCTAACCTGTTGCCT (site TCCCGAGCTAG),1.55
7,TCCCGAGCTTGGGTTCTAACCTGTTGCCT (site TCCCGATCTAG),0.119
8,TCCGAAACTTGGGTTCTAACCTGTTGCAT (site TCCGAAACTAT),1.15
9,TCCGAAACTTGGGTTCTAACCTGTTGCAT (site TCTGAAACTAG),0.0197
10,TCCGAGCCTTGGGTTCTAACCTGTTGCAT (site TCCGAGCCTAC),0.228
11,TCCGAGCCTTGGGTTCTAACCTGTTGCAT (site TCCGAGCCTAT),1.98
12,TCCGCTCCTTGGGTTCTAACCTGTTGCCT (site TCCGCTACTAG),0.177
13,TCCGCTCCTTGGGTTCTAACCTGTTGCCT (site TCCGCTCCTAG),0.323
14,TCCGCTCCTTGGGTTCTAACCTGTTGCCT (site TCCGCTGCTAG),0.215
15,TCCGCTCCTTGGGTTCTAACCTGTTGCCT (site TCCGCTTCTAG),0.0907
16,TCCGTACCTTGGGTTCTAACCTGTTGCCG (site TCCGTACCTCG),0.814
17,TCCGTACCTTGGGTTCTAACCTGTTGCCG (site TCCGTCCCTCA),0.0904
18,TCCGTCTCTTGGGTTCTAACCTGTTGCCA (site TCCGTCTCTCG),0.233
19,TCCGTCTCTTGGGTTCTAACCTGTTGCCA (site TCCGTCTCTTG),0.692
20,TCCGTCTCTTGGGTTCTAACCTGTTGCCG (site TCCGTCTCTCG),1.13
21,TCCGTCTCTTGGGTTCTAACCTGTTGCCG (site TCCGTCTCTTG),0.0281
22,TCCTAGTCTTGGGTTCTAACCTGTTGCCA (site GCCTAGTCTTG),0.405

row,Sequence,recombinant barcode read abundance (log10)
1,TCCTAGTCTTGGGTTCTAACCTGTTGCCA (site TCCTAGTCTTG),0.137
2,TCCTTAGCTTGGGTTCTAACCTGTTGCCT (site TCATTCGCTAG),0.0127
3,TCCTTAGCTTGGGTTCTAACCTGTTGCCT (site TCCTTAGCTAG),0.579
4,TCGAAACCTTGGGTTCTAACCTGTTGCCT (site TCGAAACCTAG),0.625
5,TCGAAACCTTGGGTTCTAACCTGTTGCCT (site TCGAACCCTAG),0.0112
6,TCGAAACCTTGGGTTCTAACCTGTTGCCT (site TCGAAGCCTAG),0.132
7,TCGAAACCTTGGGTTCTAACCTGTTGCCT (site TCGAATCCTAG),0.0362
8,TCGAAGACTTGGGTTCTAACCTGTTGCCA (site CCGAAGACTAG),0.14
9,TCGAAGACTTGGGTTCTAACCTGTTGCCA (site TCGAAGACTTG),0.177
10,TCGAGTACTTGGGTTCTAACCTGTTGCCT (site TCGAGTACTAG),0.274
11,TCGAGTACTTGGGTTCTAACCTGTTGCCT (site TCGAGTCCTAG),0.168
12,TCGAGTACTTGGGTTCTAACCTGTTGCCT (site TCGAGTGCTAG),0.034
13,TCGAGTACTTGGGTTCTAACCTGTTGCCT (site TCGAGTTCTAG),0.404
14,TCGATGTCTTGGGTTCTAACCTGTTGCCT (site TCGAATTCTAG),0.174
15,TCGATGTCTTGGGTTCTAACCTGTTGCCT (site TCGATGTCTAG),0.706
16,TCGCAAGCTTGGGTTCTAACCTGTTGCCT (site TCGCAAGCTAG),0.559
17,TCGCAAGCTTGGGTTCTAACCTGTTGCCT (site TCTCCAGCTAG),0.43
18,TCGCACCCTTGGGTTCTAACCTGTTGCGA (site TCGAACCCTTC),1.28
19,TCGCACCCTTGGGTTCTAACCTGTTGCGA (site TCGCACCCTTC),0.571
20,TCGCACCCTTGGGTTCTAACCTGTTGCGA (site TCGGACCCTTC),0.369
21,TCGCACCCTTGGGTTCTAACCTGTTGCGA (site TCGTACCCTTC),0.514
22,TCGCACGCTTGGGTTCTAACCTGTTGCCT (site TCGCACGCTAG),0.205

row,Sequence,recombinant barcode read abundance (log10)
1,TCGCACGCTTGGGTTCTAACCTGTTGCCT (site TCTCACGCTAG),0.541
2,TCGCACTCTTGGGTTCTAACCTGTTGCCT (site TCACACTCTAG),1.22
3,TCGCACTCTTGGGTTCTAACCTGTTGCCT (site TCCCACTCTAG),0.22
4,TCGCACTCTTGGGTTCTAACCTGTTGCCT (site TCGCACTCTAG),0.0694
5,TCGCACTCTTGGGTTCTAACCTGTTGCCT (site TCTCACTCTAG),0.117
6,TCGCACTCTTGGGTTCTAACCTGTTGCTA (site TCGCACACTTA),0.262
7,TCGCACTCTTGGGTTCTAACCTGTTGCTA (site TCGCACTCTTA),0.911
8,TCGCCTACTTGGGTTCTAACCTGTTGCCT (site TCGCCTACTAG),0.049
9,TCGCCTACTTGGGTTCTAACCTGTTGCCT (site TCGCCTGCTAG),0.396
10,TCGCCTTCTTGGGTTCTAACCTGTTGCCT (site TAGCCTTCTAG),0.482
11,TCGCCTTCTTGGGTTCTAACCTGTTGCCT (site TCGCCTTCTAG),0.364
12,TCGCCTTCTTGGGTTCTAACCTGTTGCCT (site TGGCCTTCTAG),0.654
13,TCGCCTTCTTGGGTTCTAACCTGTTGCCT (site TTGCCTTCTAG),0.0934
14,TCGCGGCCTTGGGTTCTAACCTGTTGCCT (site ACGCGGCCTAG),0.153
15,TCGCGGCCTTGGGTTCTAACCTGTTGCCT (site CCGCGGCCTAG),0.105
16,TCGCGGCCTTGGGTTCTAACCTGTTGCCT (site GCGCGGCCTAG),0.1
17,TCGCGGCCTTGGGTTCTAACCTGTTGCCT (site TCGCGGCCTAG),0.0408
18,TCGCGTCCTTGGGTTCTAACCTGTTGCCG (site ACGCGTCCTCG),0.116
19,TCGCGTCCTTGGGTTCTAACCTGTTGCCG (site TCGCGTCCTCG),1.41
20,TCGCTAGCTTGGGTTCTAACCTGTTGCGG (site CCGCTACCTCC),1.83
21,TCGCTAGCTTGGGTTCTAACCTGTTGCGG (site TCGCTAGCTCC),0.657
22,TCGGACACTTGGGTTCTAACCTGTTGCCA (site TCGGACACTTG),1.89
